Experiments:
[1] = Measurement of plasma protein binding by equilibrium dialysis; conditions: 37° C., 5 μM compound
[2] = target: human muscarinic acetylcholine M3 receptor (M3-ACh) (Homo sapiens, UniProt P20309); experiment: biochemical; format: binding
[3] = pIC50 of comparative compounds containing a cyclohexyl (C6) ring in place of cycloheptyl (C7)
[4] = pIC50 of comparative compounds containing a cyclooctyl (C8) ring in place of cycloheptyl (C7)

Sequence of human muscarinic acetylcholine M3 receptor (M3-ACh) (P20309 whole entry): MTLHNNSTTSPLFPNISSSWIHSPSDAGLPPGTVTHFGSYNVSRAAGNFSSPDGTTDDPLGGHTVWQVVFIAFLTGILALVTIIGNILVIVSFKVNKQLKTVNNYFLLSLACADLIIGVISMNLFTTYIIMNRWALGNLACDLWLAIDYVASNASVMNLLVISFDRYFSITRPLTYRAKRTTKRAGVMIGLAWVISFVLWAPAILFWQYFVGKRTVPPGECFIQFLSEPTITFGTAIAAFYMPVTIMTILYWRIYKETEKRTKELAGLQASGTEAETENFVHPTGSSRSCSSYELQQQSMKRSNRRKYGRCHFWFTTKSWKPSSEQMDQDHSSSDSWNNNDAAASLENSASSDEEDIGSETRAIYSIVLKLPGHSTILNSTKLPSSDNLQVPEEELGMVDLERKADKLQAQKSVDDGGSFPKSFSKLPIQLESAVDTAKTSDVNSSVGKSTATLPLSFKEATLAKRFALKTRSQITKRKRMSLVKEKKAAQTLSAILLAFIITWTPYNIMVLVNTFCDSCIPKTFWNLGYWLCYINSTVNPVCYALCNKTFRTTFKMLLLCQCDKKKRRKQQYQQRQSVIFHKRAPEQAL

SMILES | IC50 ([2]; M3 binding IC50) [nM] | also measured
O=C(C[N+]12CCC(CC1)[C@@H](OC(=O)C1(c3ccccc3)CCCCCC1)C2)Nc1cnccn1.[Br-] [Example 16, (3R)-1-[2-Oxo-2-(pyrazin-2-ylamino)ethyl]-3-{[(1-phenylcycloheptyl)carbonyl]oxy}-1-azoniabicyclo[2.2.2]octane Bromide] | < 2 | human plasma protein binding [1]: 94 % bound
O=C(O)C[N+]12CCC(CC1)[C@@H](OC(=O)C1(c3ccccc3)CCCCCC1)C2 [Example 34, (3R)-1-(Carboxymethyl)-3-{[(1-phenylcycloheptyl)carbonyl]oxy}-1-azoniabicyclo[2.2.2]octane Bromide] | > 10 | 
O=C(O[C@H]1C[N+]2(CCc3cccc(Cl)c3)CCC1CC2)C1(c2ccccc2)CCCCCC1 [Example 35, (3R)-1-[2-(3-Chlorophenyl)ethyl]-3-{[(1-phenylcycloheptyl)carbonyl]oxy}-1-azoniabicyclo[2.2.2]octane bromide] | < 2 | 
NC(=O)C[N+]12CCC(CC1)[C@@H](OC(=O)C1(c3ccccc3)CCCCCC1)C2 [Example 36, (3R)-1-(2-Amino-2-oxoethyl)-3-{[(1-phenylcycloheptyl)carbonyl]oxy}-1-azoniabicyclo[2.2.2]octane Bromide] | < 2 | 
O=C(C[N+]12CCC(CC1)[C@@H](OC(=O)C1(c3ccccc3)CCCCCC1)C2)NCCCc1ccccc1 [Example 37, (3R)-1-{2-Oxo-2-[(3-phenylpropyl)amino]ethyl}-3-{[(1-phenylcycloheptyl)carbonyl]oxy}-1-azoniabicyclo[2.2.2]octane Bromide] | 2 to 10 | 
COc1ccc(CC[N+]23CCC(CC2)[C@@H](OC(=O)C2(c4ccccc4)CCCCCC2)C3)cc1Cl [Example 38, (3R)-1-[2-(3-Chloro-4-methoxyphenyl)ethyl]-3-{[(1-phenylcycloheptyl)carbonyl]oxy}-1-azoniabicyclo[2.2.2]octane Bromide] | < 2 | 
Cc1cc(NC(=O)C[N+]23CCC(CC2)[C@@H](OC(=O)C2(c4ccccc4)CCCCCC2)C3)on1 [Example 39, (3R)-1-{2-[(3-Methylisoxazol-5-yl)amino]-2-oxoethyl}-3-{[(1-phenylcycloheptyl)carbonyl]oxy}-1-azoniabicyclo[2.2.2]octane Bromide] | < 2 | 
O=C(C[N+]12CCC(CC1)[C@@H](OC(=O)C1(c3ccccc3)CCCC1)C2)Nc1cnccn1 [compound 3, (3R)-1-[2-Oxo-2-(pyrazin-2-ylamino)ethyl]-3-{[(1-phenylcyclopentyl)carbonyl]oxy}-1-azoniabicyclo[2.2.2]octane Bromide, reference compound] |  | IC50 ([2]; pIC50 of comparative compounds containing a cyclopentyl (C5) ring in place of cycloheptyl (C7)): 0.316 nM
C[N+]12CCC(CC1)[C@@H](OC(=O)C1(c3ccccc3)CCCCC1)C2 [compound 5, (3R)-1-Methyl-3-{[(1-phenylcyclohexyl)carbonyl]oxy}-1-azoniabicyclo[2.2.2]octane Iodide, reference compound] |  | IC50 [2, 3]: 50.1 nM
O=C(C[N+]12CCC(CC1)[C@@H](OC(=O)C1(c3ccccc3)CCCCC1)C2)Nc1cnccn1 [compound 6, (3R)-1-[2-Oxo-2-(pyrazin-2-ylamino)ethyl]-3-{[(1-phenylcyclohexyl)carbonyl]oxy}-1-azoniabicyclo[2.2.2]octane Bromide, reference compound] |  | IC50 [2, 3]: 0.2 nM
C[N+]12CCC(CC1)[C@@H](OC(=O)C1(c3ccccc3)CCCCCCC1)C2 [compound 8, (3R)-1-Methyl-3-{[(1-phenylcyclooctyl)carbonyl]oxy}-1-azoniabicyclo[2.2.2]octane Iodide, reference compound] |  | IC50 [2, 4]: 39.8 nM
O=C(C[N+]12CCC(CC1)[C@@H](OC(=O)C1(c3ccccc3)CCCCCCC1)C2)Nc1cnccn1 [compound 9, (3R)-1-[2-Oxo-2-(pyrazin-2-ylamino)ethyl]-3-{[(1-phenylcyclooctyl)carbonyl]oxy}-1-azoniabicyclo[2.2.2]octane Bromide, reference compound] |  | IC50 [2, 4]: 0.316 nM
